Assay results reported in US9586994B2, “CD44V6-derived peptides for treating breast cancer” (KARLSRUHER INSTITUT FÜR TECHNOLOGIE, priority 2012, dated 2017).

Legend:
CD44v6 [1] = test: HGF-induced activation of Met and ERK in L3.6pl cells (Western blot); format: cell-based, human; conditions: peptide before induction with 10 ng/ml HGF
Protocol: Serum-starved cells (24 hours) were induced with the growth factor HGF (10 ng/mL) at 37° C. for 5 minutes. Where indicated, the cells were treated with peptides (100 ng/ml) prior to induction at 37° C. for 10 minutes (100 ng/mL CD44v6 peptide or control peptide). Following the induction with HGF, cells were washed with ice-cold phosphate-buffered saline (PBS). To detect activated Met and ERK, cells were lysed in sodium dodecyl sulfate (SDS)—sample buffer containing 100 mM dithiothreitol (DTT), boiled and subjected to western blot analysis using antibodies against phospho-Met and ERK. The loading controls were performed on the same blot after stripping (62.5 mM Tris, pH 6.8, 2% SDS, 0.8% DTT) by probing with the Met respectively Erk antibody. Blots were stained using the enhanced chemiluminescence system (Thermo Fisher Scientific, Schwerte, Germany). Bands in western blot analysis were quantified with the program Image J (National Institutes of Health).
To expand the studies to human pancreatic tumors, the highly metastatic human pancreatic carcinoma cells L3.6pl (Bruns, et al. Neoplasia (1999), 1(1):50-62) were investigated. These cells originate from the […] cells that have been passaged several times in the liver and the pancreas, a step that rendered them more and more metastatic. It was confirmed that Met is dependent on CD44v6 for its activation and signaling in these cells (FIG. 19A). The L3.6pl cells were treated with HGF in the presence or absence of a human v6 peptide of SEQ ID NO: 2 or SEQ ID NO:6 and Met activation and downstream signaling to ERK was measured. Phosphorylation of both Met and ERK was inhibited by the human v6 peptide. Treatment with a corresponding rat v6 peptide (ctrl peptide, SEQ ID NO: 10 or 11) had no influence on receptor activation and signal transduction (FIG. 19A).
The contribution of CD44v6 to Met signaling in the human epithelial pancreatic cancer cells L3.6pl (derived from Colo 357), the cervix carcinoma cells HeLa and the colon cancer cells HT29 were analysed using the CD44v6 peptide (v6 14mer; v6 5mer tested as well, data not shown).

CD44v6 [2] = target: T1, CD44v6 (Homo sapiens, UniProt P16070); test: Peptide blocking of EGF/TGFα-induced Erk phosphorylation in MCF7 cells (Western blot); format: cell-based; conditions: peptide 100 ng/ml
T1 construct: endogenous in cells; host or cells: MCF7; MCF10A
Protocol: 3×10^5 were seeded per well of a 6-well plate and serum-starved for 24 hours. Afterwards the medium inside of each well was reduced to 1 ml and the respective peptide (v6 (both peptides of SEQ ID No.: 2 and 6 were tested), or ctrl peptide) was added at a concentration of 100 ng/ml. The cells then were incubated together with the peptide at 37° C. for 5 mins. Ligand concentration for all peptide blocking experiments was 20 ng/ml.
To assay protein expression via Western blot cells were washed 1× with PBS and afterwards lysed in 2×Laemmli sample buffer (160 mM Tris-HCl pH 6.8, 4% SDS, 16% glycerol, 0.1M DTT, 0.01% bromphenol blue). The sample was sheared through a 26 gauge needle. In succession the lysates were boiled for 5 mins at 99° C. in order to denature the proteins in the sample and then spun down at 10 000 rmp for 1 min Eventually the samples were loaded onto an SDS-PAGE gel.
To test whether CD44v6 acts as a co-receptor in MCF7 or MCF10A cells, a peptide blocking experiment using peptides of SEQ ID NO: 6 was conducted. The cells were serum-starved for 24 h and then pre-incubated with a v6 peptide or an unspecific control peptide. Then, the cells were induced with EGF or HGF as a control. As a read-out for ErbB-activation, the phosphorylation of the Erk-kinase was used.

L3.6pl cells [3] = test: Regression of already established metastases, L3.6pl orthotopic mouse model; format: in vivo; conditions: nude mice, orthotopic L3.6pl, treatment from week 3 for three weeks; human v6 peptide or rat control peptide 20 μg i.p.
Protocol: In order to examine the regression of metastases (either BSp73ASs6 or L3.6pl) were implanted as described above. Tumor growth was allowed for three weeks. At that time all animals had developed metastases in the control group. Animals were injected i.p. with 20 μg (L3.6pl orthotopic mouse model: human v6 peptide or rat control peptide) or i.v. with 200 μg (rat syngeneic model: rat v6 peptide or mouse control peptide) of peptides three times per week. Animals were killed 23 days after the start of the peptide treatment.
The specific binding of the CD44v6 peptides to specific areas of the lungs in the rat system and of the liver in the human model raises the question whether these peptides might have an effect on already established metastases. In the experiments described in FIGS. 17 and 19 the peptides were applied early after injection of the tumor cells and repressed completely the establishment of metastases. In order to measure the effect of the CD44v6 peptide on already established metastases, other experimental settings were used. BSp73ASs6 cells were injected subcutaneously into syngeneic rats and L3.6pl cells orthotopically into male nude mice and allowed to grow for 3 weeks. […]

L3.6pl cells [4] = test: Human orthotopic pancreatic cancer model, L3.6pl cells in nude mice, treatment from day 7; format: in vivo, mouse
Protocol: In the case of the human orthotopic model, L3.6pl pancreatic carcinoma cells (passage 24-26) were suspended in Hank's balanced salt solution (Invitrogen, Karlsruhe, Germany) after trypsinization. The cells were injected orthotopically in the pancreas of male nude mice as described (Bruns C J et al. (1999) Neoplasia 1(1):50-62). Two groups of 15 mice each were injected i.p. 7 days later with either the human v6 peptide respectively rat control peptide (20 μg). For all experiments described and depicted herein either the rat 14mer control peptide or the human 14mer peptide were used. All experiments were then repeated with the rat 5mer control peptide or the human 5mer peptide (N-R-W-H-E, SEQ ID NO: 2). […] The injection was repeated three times per week for 21 days. Two days after the last treatment the animals were killed.
7 μm thick paraffin sections were deparaffinized and rehydrated. For P-Met staining antigen unmasking was achieved by boiling the slides in 1 mM EDTA pH 8.0 followed by incubation for 15 minutes at a sub-boiling temperature, for CD31 staining the sections were treated with Proteinase K (8 μg/ml) for […] at 37° C. For immunofluorescence staining of P-Met, unspecific binding was blocked with 5% goat serum (DAKO, Glostrup, Denmark) (diluted in 1×PBS/0.3% Triton X-100) for 60 minutes. In the case of immunohistochemistry, endogenous peroxidases were at first blocked with 3% H2O2 in PBS followed by incubation with biotin blocking system (Dako, Glostrup, Denmark) and then unspecific binding was inhibited by incubation with 5% FCS in PBS was used for blocking. The sections were incubated with the P-Met antibody (D26, dilution 1:50 in 1×PBS/1% BSA/0.3% Triton X-100), Met antibody (C-28, dilution 1:50), GFP antibody (sc-101525, dilution 1:50) or CD31 antibody (5 μg/ml) over night or VFF18 (5 μg/ml) o/n at 4° C. After washing in PBS the sections were incubated with Alexa Fluor R 546 goat anti-rabbit (in case of immunofluorescence P-Met and Met staining, dilution 1:500) or a biotinylated secondary antibody (for immunohistochemical stainings rabbit anti-rat antibody for VFF18 and CD31, goat anti-rabbit for P-Met, cleaved Caspase-3 and cleaved Caspase-8 and rabbit anti-mouse for GFP, dilution 1:500) for 45 minutes. For DAB staining the sections were treated with a streptavidin-peroxidase conjugate (Dako, Glostrup, Denmark) and developed with DAB (3,3′-diaminobenzidine) substrate system (3,3′-diaminobenzidine; Biozol, Eching, Germany) For immunofluorescence DAPI was used for nuclear staining.
To test the effect of the peptide on tumor growth and metastasis formation the L3.6pl cells were orthotopically injected into the pancreas of immunosuppressed mice (NCI-nu). […] The primary tumor expresses a high amount of CD44v6 (FIG. 19B). […] Indeed, human HGF in a concentration of 3375 pg/ml was detected in the supernatant (see Material and Methods) after 5 days of culture (data not shown).

T1 sequence (P16070 21-742): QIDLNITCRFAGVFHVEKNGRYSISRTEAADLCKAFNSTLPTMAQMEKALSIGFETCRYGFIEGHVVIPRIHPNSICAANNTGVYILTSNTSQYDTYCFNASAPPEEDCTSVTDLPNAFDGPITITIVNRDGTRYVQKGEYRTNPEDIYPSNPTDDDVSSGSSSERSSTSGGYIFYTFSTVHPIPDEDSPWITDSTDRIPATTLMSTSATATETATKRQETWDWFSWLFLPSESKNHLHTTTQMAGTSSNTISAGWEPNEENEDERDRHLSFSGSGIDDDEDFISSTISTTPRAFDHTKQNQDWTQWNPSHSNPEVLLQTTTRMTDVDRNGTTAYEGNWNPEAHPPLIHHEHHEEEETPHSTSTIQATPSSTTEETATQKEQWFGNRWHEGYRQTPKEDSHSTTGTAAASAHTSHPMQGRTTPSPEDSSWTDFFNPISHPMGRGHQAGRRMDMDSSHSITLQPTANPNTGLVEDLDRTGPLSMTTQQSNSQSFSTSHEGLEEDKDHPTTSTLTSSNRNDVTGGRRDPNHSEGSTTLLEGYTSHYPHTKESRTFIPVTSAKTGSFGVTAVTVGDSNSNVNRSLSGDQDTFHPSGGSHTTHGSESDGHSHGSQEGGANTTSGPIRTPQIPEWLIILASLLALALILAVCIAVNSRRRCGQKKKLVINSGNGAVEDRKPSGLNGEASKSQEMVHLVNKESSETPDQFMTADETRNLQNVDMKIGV

EGF-induced activation of the ErbB receptors (Erk phosphorylation) (CD44v6 [2]; MCF7, serum-starved, EGF 20 ng/ml): blocking of Erk phosphorylation | Erk phosphorylation upon TGFα induction (CD44v6 [2]; MCF7, TGFα 20 ng/ml): not upon TGFα induction
Substance: NRWHE [SEQ ID NO: 2, human CD44v6 5mer peptide]
HGF-induced phosphorylation/activation of ERK (CD44v6 [1]): inhibited | HGF-induced phosphorylation/activation of Met (CD44v6 [1]): inhibited | Presence of metastases (liver) after treatment of established metastases (L3.6pl cells [3]): eliminate already established metastases | Outcome of all experiments repeated with 5mer peptides, compared with 14mer (L3.6pl cells [4]; L3.6pl orthotopic model, 5mer instead of 14mer): same results as for the 14mer peptides | Metastasis formation (liver) (L3.6pl cells [4]; nude mice, orthotopic L3.6pl, 20 μg i.p. three times per week): capable of inhibiting metastasis
